Laboratory results published in US20250041422A1, “METHOD OF TREATING ARRHYTHMIA, POPULATION OF PACEMAKER CARDIOMYOCYTES, AND METHOD OF TREATING CARDIAC ARRHYTHEMIA USING POPULATION OF PACEMAKER CARDIOMYOCYTES” (priority 2022, published 2025).
“Also recorded” adds a separate entry of the source.

Legend:
aldolase c (Aldoc) = test: Aldoc transcripts by quantitative real-time PCR in treated Tbx18-PC/fibroblast cocultures; format: cell-based, rat; conditions: for transcriptional expressions of Aldolase C / Aldolase C expressions: 4 days; for aldolase c expressions within pacemaker cardiomyocytes: in-vitro, summary statement, concentration not given at the place
Protocol: (§1) The Tbx18-PCs were used as the cell model of pacemaker cardiomyocytes, which were generated by the transduction of VMs with adenoviral human Tbx18 (MOI [multiplicity of infection]: 10; green fluorescent protein [GFP] reporter, ADV-225152, Vector Biolabs, Malvern, USA) for 24 hours (Kapoor et al; Hu et al.). Those with adenovirus-CMV-GFP were used as control VMs (Tsai et al., J Biomed Sci, 2015). For the cocultures of Tbx18-PCs and fibroblasts, a ratio of fibroblasts/VMs ( 1/10) was first plated on fibronectin-coated wells, and adenoviral Tbx18 was transduced for 24 hours one day after seeding to induce PCs. […] Therefore, the beating rates, metabolic and molecular phenotypes, including microelectrode array (MEA), whole transcriptomes, Seahorse analysis, metabolomics, glycolysis metabolites (lactate or DHAP), protein and gene transcripts were analyzed 3-5 days after Tbx18 transduction. The beating rates were recorded by MEA or video. An inverted microscope (AXIO Observer Al, Carl Zeiss AG, Oberkochen, Germany) was used for 10-second video capture. Video was analyzed with Q Capture Pro 6.0 (Teledyne Technologies, CA, USA).
For the experiments of drug treatment, Tbx18-PCs after re-expression of Tbx18 were treated with sodium pyruvate (1 mM, 11360-070, Thermo Fisher Scientific, 3 days), 2-deoxy-D-glucose (2-DG, 5 mM, D8375, Sigma-Aldrich, 3 days), wortmannin (PI3K inhibitor, 100 nM, 12-338, Merck Millipore, MA, USA, 4 days), anti-integrin β1 monoclonal antibody (ltgb1, MAB1987Z, 10 μg/mL, Merck Millipore, 2 days), or SB203580 (p38-MAP kinase inhibitor, 559389, 1 μM, Merck Millipore, 3 days), respectively. Then the beating rate and gene expression were analyzed. […]
(§2) Total RNA was extracted from cultured VMs using the RNeasy® Mini Kit (74106, Qiagen, Venlo, Netherlands). Complementary DNAs (cDNAs) were synthesized using a SuperScript® […] First-Strand Synthesis System (18080051, Thermo Fisher Science). Quantitative real-time PCR (qRT-PCR) was performed using Applied Biosystems™ StepOnePlus Real-Time PCR system with TaqMan probe assays (4331182, Invitrogen, Waltham, Massachusetts, USA) and PrimeTime qPCR Probe Assays (Integrated DNA Technologies, Inc., Coralville, Iowa, USA). The internal control was Gapdh. The conditions of thermocycle used in amplification were denaturation at 95° C. for 15 seconds and annealing and extension step at 60° C. for 60 seconds by 40 cycles. The relative values of gene transcripts were analyzed by ΔΔCt method. All the probes used are listed below in Table 1.
(§3) The cocultures of Tbx18-pacemaker cardiomyocytes (PCs) and fibroblasts, a ratio of fibroblasts/VMs ( 1/10) was first plated on fibronectin-coated wells, and adenoviral Tbx18 (MOI [multiplicity of infection]: 10, ADV-225152, Vector Biolabs, Malvern, USA) was transduced for 24 hours after seeding to induce PCs. After re-expression of Tbx18 were treated with the inhibitors of PI3K (wortmannin, PIK-75, Duvelisib, Alpelisib, Copanlisib, Idelalisib, and Eganelisib), and one IKK inhibitor (BMS-345541) for 4 days. Then the beating rate and Aldoc transcriptional expressions were analyzed. The beating rates were recorded by video. An inverted microscope (AXIO Observer Al, Carl Zeiss AG, Oberkochen, Germany) was used for 10-second video capture. We analyzed the video with Q Capture Pro 6.0 (Teledyne Technologies, CA, USA). Aldoc gene transcriptional expressions were analyzed by quantitative real-time PCR. The protocol is as same as the treatment described previously (FIGS. 31A-31B).
Total RNA was extracted from cultured VMs using the RNeasy® Mini Kit (74106, Qiagen, Venlo, Netherlands). Complementary DNAs (cDNAs) were synthesized using a SuperScript® […] First-Strand Synthesis System (18080051, Thermo Fisher Science). […]

[1] = tested on: Tbx18-induced pacemaker cardiomyocytes; test: Beating rate / electrical firing rate of Tbx18-induced pacemaker cardiomyocytes (video or MEA); format: cell-based, rat
Protocol: as §1
(§4) For the experiments of drug treatment, Tbx18-PCs after re-expression of Tbx18 were treated with sodium pyruvate (1 mM, 11360-070, Thermo Fisher Scientific, 3 days), 2-deoxy-D-glucose (2-DG, 5 mM, D8375, Sigma-Aldrich, 3 days), wortmannin (PI3K inhibitor, 100 nM, 12-338, Merck Millipore, MA, USA, 4 days), anti-integrin β1 monoclonal antibody (ltgb1, MAB1987Z, 10 μg/mL, Merck Millipore, 2 days), or SB203580 (p38-MAP kinase inhibitor, 559389, 1 μM, Merck Millipore, 3 days), respectively. Then the beating rate and gene expression were analyzed.
(§5) Tbx18-PCs or human IPS-CMs were transduced with human Aldoc adenovirus (CMV promotor, 068583A, Applied Biological Materials, Richmond, BC, Canada), and CMV-null adenovirus was used as a control (000047A, Applied Biological Materials) for 24 hours. Aldoc overexpression was confirmed by Aldoc transcripts (FIG. 1J). The protein, gene transcripts, and beating rates were analyzed 3 days after transduction. The viral titer used in cell transduction of aldolase c overexpression is MOI of 10. The transduced cells were not subjected to enrichment by the antibiotic selection.
MEA was used to record electrical firing in Tbx18-PCs, Tbx18-PC tissue sheets, or human IPS-CMs. The cells or tissue sheets were seeded on fibronectin-coated MEA CytoView MEA 24-White plate at 37° C. and 5% C02 (M384-tMEA-24W, Axion BioSystems, Atlanta, USA). The electrical firing rates were recorded by Maestro Edge (Axion BioSystems). The continuous recording of electrical signals for 5 minutes was used for the analysis (sampling frequency: 12.5 kHz, low pass and high pass filter: 2 kHz and 0.1 Hz) by AxIS Navigator software Axion BioSystems. In human IPS-CMs, the cells were further treated with epinephrine (150 ng/mL, Taiwan Biotech Co., Ltd) after recording baseline electrical firing rate. Similarly, continuous recording of electrical signals for 5 minutes after the treatment was used for the analysis.
as §3, with “The protocol is as same as the treatment described previously (FIGS. 31A-31B).” left out

Hcn4 = Hcn4 expression in Tbx18-induced pacemaker cardiomyocytes (real-time PCR); format: cell-based, rat; conditions: for Hcn4 expression: 3 days, Tbx18-PCs
Protocol: as §4, §5, §2

mouse SAN = test: Heart rate recording (ECG) in mice; format: in vivo; conditions: epinephrine 2.5 μg intraperitoneal, control (scramble) mice
Protocol: Male mice (C57BL/6, 26 to 32 g, 13-14 weeks, National Laboratory Animal Center, Taiwan) were mechanically ventilated at a controlled temperature (37° C.±0.5° C.) under general anesthesia (isoflurane). […] AAV9 siRNA or scramble virus with a reporter of green fluorescent protein (1.44×10^9 gene copies; AAV9 scramble siRNA [iAAV01509] and Aldoc siRNA pooled virus [117530940219], Applied Biological Materials, Canada) was added to the pericardial recess through the opening. […] The survival rate was 100%. All animals were included except one scramble animal. One animal from the scramble group was excluded because arrhythmia was observed before the experiment.
Two weeks later, the three-lead surface ECG (Biopac, MP36, CA, USA) was recorded on mice by inserting needle electrodes subcutaneously into the limbs after anesthesia. The heart rate was recorded for 2 minutes first to compare the knockdown and control groups. Then, we performed a peritoneal injection of epinephrine (2.5 μg, Taiwan Biotech) and recorded the heart rate for 5 minutes after the injection. After the recording, the mouse hearts were removed for tissue analysis. ECG data were analyzed by Biopac Student Lab 4.1 software (Biopac).

Tbx18-PC tissue sheets = test: Beating rate / electrical firing of engineered Tbx18-PC tissue sheets; format: cell-based, rat; conditions: epinephrine 0.15 μg/mL
Protocol: The fibroblasts and VMs were mixed in a ratio of 1:10 (fibroblast/VMs, total cell number: 1×10^6) with an extracellular matrix of 10% Matrigel (354230, Corning®) in the cultured-insert (80209, 0.22 mm^2, ibidi GmbH, Grsfelfing, Germany) for gelation at 37° C. The engineered tissue was transduced with adenoviral human Tbx18 or control vectors 24 hours after gelation. The constant beating was usually observed 4-5 days after Tbx18 adenovirus transduction. Therefore, phenotypes were determined using immunofluorescence staining, beating rate (either video recording or microelectrode array), and real-time quantitative PCR after virus transduction for 5-6 days. The autonomic response of Tbx18-PC tissue sheets was evaluated by treatment with epinephrine (Taiwan Biotech Co., Ltd, Taoyuan, Taiwan).
The Tbx18-PC cocultures were treated with 200 nM siRNAs (Dharmacon™, GE Healthcare, Lafayette, CO, USA or GenePharma, Shanghai, China) or negative controls (nontarget siRNAs, D-001810-10-05, Dharmacon™ or negative controls, GenePharma) for 24 hours using DharmaFECT transfection reagent (Dharmacon™) in serum-free and antibiotic-free medium. Cells were incubated at 37° C. in 5% C02 for 96 hours, and the beating rate was recorded by microelectrode array (MEA) or video. Then, total RNA was extracted for real-time PCR analysis. […]

[2] = in-vitro, summary statement, concentration not given at the place

Structure (SMILES): C[C@H](Nc1ncnc2nc[nH]c12)c1cc2cccc(Cl)c2c(=O)n1-c1ccccc1 [Duvelisib]
- transcriptional expressions of Aldolase C (aldolase c (Aldoc); 50 nM, control 0.82±0.08, P=0.02): 1.17±0.11

Structure (SMILES): Cc1ccc([N+](=O)[O-])cc1S(=O)(=O)N(C)/N=C/c1cnc2ccc(Br)cn12 [PIK-75]
- Aldolase C expressions (aldolase c (Aldoc); PIK-75 high dose (10 nM), vs control): increased
- aldolase c expressions within pacemaker cardiomyocytes (aldolase c (Aldoc)): increased
- beating rate ([1]; PIK-75 high dose (10 nM), 4 days, vs control): increased
- beating rate ([1]; PIK-75 low dose (1-5 nM), 4 days, vs control): increased
- beating rates [1, 2]: increased

Structure (SMILES): C[S+]([O-])c1ccc(-c2nc(-c3ccncc3)c(-c3ccc(F)cc3)[nH]2)cc1 (stereo not shown) [SB203580]
- Aldoc expression (aldolase c (Aldoc); SB203580 1 μM, 3 days, cocultures, vs control): decreased; also recorded: reduced

Structure (SMILES): Cc1ccc2nc(NCCN)c3ncc(C)n3c2c1 [BMS-345541]
- Aldolase C expressions (aldolase c (Aldoc); BMS-345541 5 μM, vs control): increased
- aldolase c expressions within pacemaker cardiomyocytes (aldolase c (Aldoc)): increased
- Hcn4 expressions (Hcn4; BMS-345541 5 μM, vs control): increased
- beating rate ([1]; BMS-345541 1-10 μM, 4 days, vs control): increased
- beating rates [1, 2]: increased

Structure (SMILES): CC(=O)C(=O)[O-].[Na+] [sodium pyruvate]
- Hcn4 expression (Hcn4; sodium pyruvate 1 mM): increased
- beating rates ([1]; sodium pyruvate 1 mM, 3 days, Tbx18-PCs): increased

Structure (SMILES): CNC[C@H](O)c1ccc(O)c(O)c1 [epinephrine]
- heart rate (mouse SAN): increased
- beating rate (Tbx18-PC tissue sheets; Tbx18-PC tissue sheets): increased
- beating rate (Tbx18-PC tissue sheets; control tissue sheets): minimal changes

Structure (SMILES): CC[C@H](Nc1ncnc2[nH]cnc12)c1nc2cccc(F)c2c(=O)n1-c1ccccc1 [Idelalisib]
- transcriptional expressions of Aldolase C (aldolase c (Aldoc); 100 nM, control 0.87±0.05, P=0.02): 1.01±0.02
- aldolase c expressions within pacemaker cardiomyocytes (aldolase c (Aldoc)): increased
- beating rates [1, 2]: increased

Structure (SMILES): C[C@H](NC(=O)c1c(N)nn2cccnc12)c1cc2cccc(C#Cc3cnn(C)c3)c2c(=O)n1-c1ccccc1 [Eganelisib]
- transcriptional expressions of Aldolase C (aldolase c (Aldoc); 40 nM, control 0.57±0.03, P=0.013): 0.82±0.07
- aldolase c expressions within pacemaker cardiomyocytes (aldolase c (Aldoc)): increased
- beating rates [1, 2]: increased

Structure (SMILES): COc1c(OCCCN2CCOCC2)ccc2c1N=C(NC(=O)c1cnc(N)nc1)N1CCN=C21 [Copanlisib]
- transcriptional expressions of Aldolase C (aldolase c (Aldoc); 10 nM, control 0.64±0.09, P=0.002): 1.32±0.09
- aldolase c expressions within pacemaker cardiomyocytes (aldolase c (Aldoc)): increased
- beating rates [1, 2]: increased

Structure (SMILES): Cc1nc(NC(=O)N2CCC[C@H]2C(N)=O)sc1-c1ccnc(C(C)(C)C(F)(F)F)c1 [Alpelisib]
- transcriptional expressions of Aldolase C (aldolase c (Aldoc); 250 nM, control 0.87±0.05, P=0.008): 1.13±0.05
- aldolase c expressions within pacemaker cardiomyocytes (aldolase c (Aldoc)): increased
- beating rates [1, 2]: increased

Structure (SMILES): O=CC[C@@H](O)[C@H](O)[C@H](O)CO [2-DG, 2-deoxy-D-glucose]
- Hcn4 expression (Hcn4; 2-DG 5 mM): decreased
- beating rate ([1]; 2-DG 5 mM, 3 days, Tbx18-PCs): decreased
